According to patent US20230201217A1 (priority 2019, published 2023):
Values joined by “and” are separate entries in the source; they are usually repeats but may differ in a detail not shown here. Equal entries are not always repeated. Where two headings read alike, the source gives them in different places.

Key:
[1] = test system: isolated rabbit Purkinje fibers; assay: Action potential duration in rabbit cardiac Purkinje fibers; conditions: 50 μM, positive control
Description: The in vitro effect of 18-MC on the cardiac action potential was evaluated in isolated rabbit Purkinje fibers (FIG. 13). […] Fibers with resting potentials more negative than −80 mV and normal action potential morphology (APD90≥150 ms) were used in the study. Fibers were stimulated continuously at BCL of 1 second for at least 5 minutes. At the end of this period, baseline control APD rate dependence was measured using stimulus pulse trains consisting of approximately 50 pulses at BCL of 1 and 0.5 seconds. After returning to BCL of 1 second, 18-MC (or dl-sotalol) at the lowest concentration was applied for at least 20 minutes to allow equilibration, and the stimulus trains repeated. […] The average responses from the last five recorded action potentials from each stimulus train were analyzed for each test condition.
Electrophysiological recordings were performed with four nominal concentrations of 18-MC (0.3, 1, 3, and 10 μM) added sequentially to four preparations at two stimulus intervals (basic cycle lengths of 1 s and 0.5 s). The effects of 18-MC on action potential parameters were compared to time-matched vehicle control sequences.

[2] = Phase 1 first-in-human study, pharmacokinetics in plasma; conditions: for Cmax: Average; for percentage of the total drug related material: 4 mg twice at 0 and +10 hours
Description: Fourteen normal, healthy volunteers were enrolled in the study. Seven volunteers were treated in the first cohort (3 placebo, 4 received a single dose of 20 mg of 18-MC) and seven in the second cohort (2 placebo, 5 received 8 mg as 4 mg doses of 18-MC administered at 0 and plus 10 hours). For Cohort A, volunteers were monitored in a hospital unit for 2 days (36 hours) days, and were followed up for safety at Days 3, 7 and 30. For Cohort B, volunteers were monitored in a hospital unit for 2 days (36 hours), and were followed up for safety at Days 3, 4, 7 and 30.
This study was designed as a randomized, double-blind, placebo-controlled, single-center Phase 1 first-in-human clinical trial. After screening, volunteers were admitted to the hospital for 36 hours. […] Study article was initiated on Day 1 and volunteers were discharged on Day 2. Cohort A were seen as outpatients on Days 3, 7 and 30. Cohort B were seen as outpatients on Days 3, 4, 7 and 30. 14 subjects were in the study, 5 male and 9 female.
For Cohort A, pharmacokinetic samples were obtained at baseline and at 0.5, 1.0, 2.0, 6.0, 12.0, 24, 36 hours, and 7 days post dose.
Samples underwent two analyses: A research assay (LG/MS/TOF) developed by MicroConstants, Inc., was used to collect the raw data. The first analysis was to quantitate 18-MG and the known metabolites M2, M4 and M5 (using standard curves included in the run). The second analysis compared the peak heights of 18-MG and all the metabolites that could be identified in terms of relative peak height (M1 through M10, and P1-P3).

[3] = target: T1, rat α3β4 nicotinic acetylcholine receptor (nAChR) (Rattus norvegicus, UniProt P04757+P12392); assay: cell-based; conditions: for Persistent Inhibition at 1 sec: 1 second after removal of drug; for koff: HEK293
T1 construct: expressed in transfected cells; host or cells: HEK 293 (ATCC CRL1573), transient, Lipofectamine 2000
T1 sequence (P04757 26-499): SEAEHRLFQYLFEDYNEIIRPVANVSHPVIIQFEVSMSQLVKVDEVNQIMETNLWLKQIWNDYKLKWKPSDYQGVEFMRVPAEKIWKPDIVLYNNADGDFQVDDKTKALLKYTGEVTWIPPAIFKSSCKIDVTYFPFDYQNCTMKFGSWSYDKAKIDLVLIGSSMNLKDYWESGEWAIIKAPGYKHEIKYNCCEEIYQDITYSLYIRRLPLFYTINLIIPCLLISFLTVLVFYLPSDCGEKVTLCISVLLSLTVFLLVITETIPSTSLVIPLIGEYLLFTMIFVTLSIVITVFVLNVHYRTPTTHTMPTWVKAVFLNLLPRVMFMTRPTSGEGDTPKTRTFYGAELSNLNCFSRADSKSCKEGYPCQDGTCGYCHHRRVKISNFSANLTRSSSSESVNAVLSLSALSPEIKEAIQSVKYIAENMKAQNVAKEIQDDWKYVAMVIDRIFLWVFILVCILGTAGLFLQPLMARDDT
T1 sequence (P12392 21-495): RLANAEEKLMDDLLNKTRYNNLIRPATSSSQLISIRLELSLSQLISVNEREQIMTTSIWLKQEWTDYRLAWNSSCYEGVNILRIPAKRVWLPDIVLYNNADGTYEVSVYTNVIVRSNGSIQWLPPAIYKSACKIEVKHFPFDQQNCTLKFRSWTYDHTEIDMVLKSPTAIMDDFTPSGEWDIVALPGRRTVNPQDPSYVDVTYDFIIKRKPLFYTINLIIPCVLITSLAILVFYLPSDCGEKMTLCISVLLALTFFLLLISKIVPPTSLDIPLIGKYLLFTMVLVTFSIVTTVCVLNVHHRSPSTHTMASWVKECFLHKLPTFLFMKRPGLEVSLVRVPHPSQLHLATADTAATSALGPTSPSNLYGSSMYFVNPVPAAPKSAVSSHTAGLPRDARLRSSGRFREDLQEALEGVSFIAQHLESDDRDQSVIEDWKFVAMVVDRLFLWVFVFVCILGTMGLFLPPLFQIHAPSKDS

mouse liver = assay: In vivo comet assay; conditions: positive control
Description: The comet assay (alkaline single cell gel electrophoresis) is a microgel electrophoretic technique that detects DNA damage in individual cells. DNA damage can be expressed as DNA single strand breaks, double strand breaks, and strand breaks induced by alkali labile sites. […] For this study, the liver was selected as the tissue for evaluation, since this tissue is expected to contain high concentrations of parent drug and metabolites following oral administration.
Male mice were administered oral doses of 0 (vehicle=5% dextrose), 50, 90 and 120 mg/kg/day by gavage according to the table below. Animals in groups 1-4 were dosed on three consecutive days and euthanized 3 to 4 hours after the last dose by CO2 inhalation. A separate group of animals were dosed with methyl methanesulfonate (MMS) which served as a positive control. Immediately following euthanasia, the liver was removed and collected from each animal.
In this study, comet tail migration, % tail DNA (also known as % tail intensity) and tail moment were determined for each animal/treatment group and served as parameters of DNA damage.

[4] = both, human, plasma, po, 4 mg, cohort B, 4 mg PO at 0 and +10 hours
[5] = both, human, plasma, po, 20 mg, cohort A, 20 mg PO single dose
[6] = cohort B, 4 mg PO at 0 and +10 hours

SMILES	AUC ([2]; both, human, plasma, po, 4 mg) [ng·h/mL]	AUC(0-inf) ([2]; both, human, plasma, po, 4 mg) [ng·h/mL]	Tmax ([2]; both, human, plasma, po, 4 mg) [h]	half-life ([2]; both, human, plasma, po, 4 mg) [h]	Cmax [2, 4] [ng/mL]	AUC ([2]; both, human, plasma, po, 20 mg) [ng·h/mL]	AUC(0-inf) ([2]; both, human, plasma, po, 20 mg) [ng·h/mL]	Tmax ([2]; both, human, plasma, po, 20 mg) [h]	half-life ([2]; both, human, plasma, po, 20 mg) [h]	Cmax [2, 5] [ng/mL]	AUCall, Max ([2]; cohort A, 20 mg PO single dose) [ng·h/mL]	AUCall, Min ([2]; cohort A, 20 mg PO single dose) [ng·h/mL]	Cmax, Max ([2]; cohort A, 20 mg PO single dose) [ng/mL]	Cmax, Min ([2]; cohort A, 20 mg PO single dose) [ng/mL]	Half-Life, Max ([2]; cohort A, 20 mg PO single dose) [h]	Half-Life, Min ([2]; cohort A, 20 mg PO single dose) [h]	Tmax, Max ([2]; cohort A, 20 mg PO single dose) [h]	Tmax, Min ([2]; cohort A, 20 mg PO single dose) [h]	AUCall, Max [2, 6] [ng·h/mL]	AUCall, Min [2, 6] [ng·h/mL]	further results
CC(C)NCC(O)c1ccc(NS(C)(=O)=O)cc1 (racemic) [dl-Sotalol, reference compound]																					APD60 prolongation [1]: ~40%; APD90 prolongation [1]: ~40%
COC(=O)C12CC3CC(CCO)C1N(C=Cc1c2[nH]c2ccccc12)C3 (stereo not drawn) [M2, methyl7-(2-hydroxyethyl)-7,8,9,10-tetrahydro-5H-6,9-methanopyrido[1′,2′:1,2]azepino[4,5-b]indole-6(6aH)-carboxylate]	391	420	11.8	44.1	11	563	678	1.4	14.4	41	684	504	62	27	19.0	11.1	2.0	0.5	500	287	Cmax, Max [2, 6]: 12 ng/mL; Cmax, Min [2, 6]: 8 ng/mL; Half-Life, Max [2, 6]: 97.8 h; Half-Life, Min [2, 6]: 18.7 h; Tmax, Max [2, 6]: 12 h; Tmax, Min [2, 6]: 11 h
COCCC1CC2CN3C=Cc4c([nH]c5ccccc45)C(C(=O)OC)(C2)C13 (stereo not drawn) [M4, methyl7-(2-methoxyethyl)-7,8,9,10-tetrahydro-5H-6,9-methanopyrido[1′,2′:1,2]azepino[4,5-b]indole-6(6aH)-carboxylate]	1650	1650	7.3	22.1	72	2690	2800	1.4	7.9	347	3925	1897	528	242	9.3	6.3	2.0	0.5	1941	1304	IC50 [3]: 2.6 µM; Ipeak [3]: 23 ± 2% of ACh and 42 ± 3% of ACh; Max Inhibition 20-30 μM [3]: 88 ± 3%; fold less potent than the parent 18-MC HCl [3]: approximately 3.5 fold; kon [3]: 4.5 and 4.5 ± 0.4 s−1; reduction of peak ACh-evoked currents [3]: 68±2% and 86±2%; Ipeak ([3]; 30 μM): 14 ± 2% of ACh; Iss ([3]; 30 μM): 40 ± 6% of peak; τdecay ([3]; 30 μM): 205 ± 40 ms; Persistent Inhibition at 1 sec [3]: 21±3%; koff [3]: 2.5 s⁻¹; percentage of the total drug related material [2]: about 40%; Tmax ([2]; cohort A or B, generally): ½; Cmax, Average [2, 6]: 72.3 ng/mL; Cmax, Max [2, 6]: 82 ng/mL; Cmax, Min [2, 6]: 65 ng/mL; Half-Life, Max [2, 6]: 34.3 h; Half-Life, Min [2, 6]: 13.2 h; Tmax, Max [2, 6]: 12 h; Tmax, Min [2, 6]: 0.5 h
COC(=O)C12CC3CC(CC(=O)O)C1N(CCc1c2[nH]c2ccccc12)C3 (stereo not drawn) [M5, 2-(6-(methoxycarbonyl)-6,6a,7,8,9,10,12,13-octahydro-5H-6,9-methanopyrido[1′,2′:1,2]azepino[4,5-b]indol-7-yl)acetic acid]	163	185	2.9	46.8	6	210	395	0.8	29.6	25	359	105	38	12	43.4	16.2	1.0	0.5	208	104	IC50 [3]: 57 µM; Ipeak [3]: 70 ± 4% of ACh; Iss [3]: 62 ± 4% of peak; Max Inhibition 20-30 μM [3]: 36 ± 5 %; fold less potent than the parent 18-MC HCl [3]: ~76 fold; kon [3]: 2.2 and 2.2 ± 0.4 s−1; τdecay [3]: 554 ± 32 ms; Persistent Inhibition at 1 sec [3]: 2±2%; koff [3]: 6.2 s⁻¹; Tmax ([2]; cohort A or B, generally): ½; Cmax, Max [2, 6]: 9 ng/mL; Cmax, Min [2, 6]: 3 ng/mL; Half-Life, Max [2, 6]: 74.7 h; Half-Life, Min [2, 6]: 19.8 h; Tmax, Max [2, 6]: 11 h; Tmax, Min [2, 6]: 0.5 h
COCCC1CC2CN3C=Cc4c([nH]c5ccc(O)cc45)C(C(=O)OC)(C2)C13 (stereo not drawn) [M8, methyl 2-hydroxy-7-(2-methoxyethyl)-7,8,9,10-tetrahydro-5H-6,9-methanopyrido[1′,2′:1,2]azepino[4,5-b]indole-6(6aH)-carboxylate]																					percentage of the total drug related material [2]: less than 10%
COS(C)(=O)=O [MMS, methyl methanesulfonate, reference compound]																					comet parameters (mouse liver): produced the expected increases
COC(=O)C12CC3CC(CCO[C@@H]4O[C@H](C(=O)O)[C@@H](O)[C@H](O)[C@H]4O)C1N(C=Cc1c2[nH]c2ccccc12)C3 (stereo partly drawn) [P10, (2S,3S,4S,5R,6R)-3,4,5-trihydroxy-6-(2-(6-(methoxycarbonyl)-6,6a,7,8,9,10-hexahydro-5H-6,9-methanopyrido[1′,2′:1,2]azepino[4,5-b]indol-7-yl)ethoxy)tetrahydro-2H-pyran-2-carboxylic acid]																					percentage of the total drug related material [2]: greater than 10%; Tmax ([2]; both, human, plasma, oral, 4 mg): 6 to 10 h
